Test: Stability of the biologically active substance at the melting temperature of the spray melt blending liquid
Type: physicochemical
Settings: for Mean Content (%): liquid agitated 1 hour before injection
Procedure: Next, stability of the biologically active substance was studied in order to determine optimum temperature for the spray melt blending liquid used in the granulation through injection. […] However, when kept warmed below 75° C., the content remains high. Based on this fact, in the case of a rumen bypass product with a biologically active substance, employing a thermally vulnerable vitamins such as a calcium pantothenate, such vitamins can be contained in the preparation without suffering from any damage when granulation through injection is carried out, limiting the temperature of spray melt blending liquid to less than 75° C.

Compound	Mean Content (%) (Melting Temperature 60 °C)	Mean Content (%) (Melting Temperature 65 °C)	Mean Content (%) (Melting Temperature 70 °C)	Mean Content (%) (Melting Temperature 75 °C)	Mean Content (%) (Melting Temperature 80 °C)	content estimated when kept warmed above 90° C. (kept warmed above 90° C., extrapolated from Table 4)
CSCC[C@H](N)C(=O)O [Methionine]	100.5%	100.3%	103.6%	104.2%	109.6%	
O=C(O)c1cccnc1 [Nicotinic Acid]	99.5%	98.2%	100.3%	101.2%	102.0%	
Calcium Pantothenate	98.6%	96.9%	97.1%	94.5%	71.5%	below 50%
